{"source": "PubChem BioAssay AID504687", "about": "(Sanford-Burnham Center for Chemical Genomics, 2011)", "note": "Values joined by “and” are separate entries in the source; they are usually repeats but may differ in a detail not shown here. Equal values may be shown once. Active and inactive are the calls of the source. How the calls were made is not given here.", "data": [{"biological_target": "Ubiquitin-conjugating enzyme E2 N (Homo sapiens) (UniProt P61088)", "sequence (P61088 whole entry, looked up)": "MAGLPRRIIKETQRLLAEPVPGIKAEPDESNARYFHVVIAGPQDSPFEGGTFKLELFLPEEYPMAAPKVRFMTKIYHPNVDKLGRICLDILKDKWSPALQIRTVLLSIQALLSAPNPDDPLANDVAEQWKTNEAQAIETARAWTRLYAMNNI", "assay": "UBC13 polyubiquitin chain formation inhibitors, SAR follow-up, biochemical, TR-FRET (AID 504687)", "values": [{"smiles": "CN(C)CCCN(C(=O)c1ccc2c(c1)CCCC2)c1nc2ccc(Cl)cc2s1", "IC50": "10.7 µM"}, {"smiles": "O=C1c2cccc3cccc(c23)C(=O)N1CCN1CCN(CC(O)COc2ccc3c(c2)OCO3)CC1", "note": "(configuration not stated)", "IC50": "6.68 µM"}, {"smiles": "COc1cccc2sc(N(CCCN(C)C)C(=O)c3ccc(S(=O)(=O)N4CCc5ccccc5C4)cc3)nc12", "IC50": "1.85 µM"}, {"smiles": "CCOC(=O)c1c(NC(=O)COc2ccccc2C#N)sc2c1CC(C)(C)NC2(C)C", "IC50": "2.35 µM"}, {"smiles": "O=C(CCCCCN1C(=O)c2ccccc2C1=O)N1CCN(c2ccc([N+](=O)[O-])cc2)CC1", "IC50": "> 100 µM (inactive)"}, {"smiles": "CCOc1ccc(NC(=O)Cn2c(=O)n(CCCC(=O)NC3CCN(Cc4ccccc4)CC3)c(=O)c3ccccc32)cc1", "IC50": "3.06 µM"}, {"smiles": "Cc1c(NC(=O)CCCN2C(=O)c3cccc4cccc(c34)C2=O)c(=O)n(-c2ccccc2)n1C", "IC50": "2.65 µM"}, {"smiles": "O=C(CCCCCN1C(=O)c2cccc3cccc(c23)C1=O)NCCO", "IC50": "12.7 µM"}, {"smiles": "O=C(CCCCCN1C(=O)c2cccc([N+](=O)[O-])c2C1=O)NCc1ccccc1", "IC50": "16.4 µM"}, {"smiles": "Cc1ccc2nc(N(CCCN(C)C)C(=O)c3ccc(S(=O)(=O)N4CCc5ccccc5C4)cc3)sc2c1", "IC50": "4.83 µM"}, {"smiles": "N#Cc1ccccc1Cn1c(=O)n(CCCC(=O)NC2CCN(Cc3ccccc3)CC2)c(=O)c2ccccc21", "IC50": "0.63 µM"}, {"smiles": "CC1CC(C)CN(C(=O)C2CCN(c3ncnc4c3nc3n4CCCCC3)CC2)C1", "note": "(configuration not stated)", "IC50": "> 100 µM (inactive)"}, {"smiles": "CN(CCNC(=O)C1CCN(c2ncnc3c2nc2n3CCCCC2)CC1)Cc1ccccc1", "IC50": "1.65 µM"}, {"smiles": "O=C(c1ccco1)N1CCN(C(=O)C2CCN(c3ncnc4c3nc3n4CCCCC3)CC2)CC1", "IC50": "inactive"}, {"smiles": "O=C(NCCCN1CCN(c2ccccc2)CC1)C1CCCN(c2ncnc3c2nc2n3CCCCC2)C1", "note": "(configuration not stated)", "IC50": "4.28 µM"}, {"smiles": "O=C(CCCCCN1C(=O)c2ccccc2C1=O)Nc1ccc(S(=O)(=O)Nc2ncccn2)cc1", "IC50": "> 100 µM (inactive)"}, {"smiles": "Cc1ccccc1CN1CCC(CNC(=O)C2CCCN(c3ncnc4c3nc3n4CCCCC3)C2)CC1", "note": "(configuration not stated)", "IC50": "4.69 µM"}, {"smiles": "CCCN1CCN(C(=O)C2CCN(c3ncnc4c3nc3n4CCCCC3)CC2)CC1", "IC50": "3.42 µM"}, {"smiles": "NNC(=O)c1ccc(CN2C(=O)c3cccc4cccc2c34)cc1", "IC50": "1.78 µM"}, {"smiles": "COc1ccc2sc(N(CCCN(C)C)C(=O)c3ccc(S(=O)(=O)N(C)Cc4ccccc4)cc3)nc2c1", "IC50": "5.89 µM"}, {"smiles": "COc1cccc(OCC(O)CN2CCN(CCN3C(=O)c4cccc5cccc(c45)C3=O)CC2)c1", "note": "(configuration not stated)", "IC50": "9.98 µM and 9.03 µM"}, {"smiles": "COc1ccc2sc(N(CCCN(C)C)C(=O)c3ccc(S(=O)(=O)N4CCc5ccccc5C4)cc3)nc2c1", "IC50": "5.62 µM"}, {"smiles": "O=C(CCCCCN1C(=O)c2ccccc2C1=O)NCCc1nc2ccccc2[nH]1", "IC50": "10.2 µM"}, {"smiles": "O=C(C1CCN(c2ncnc3c2nc2n3CCCCC2)CC1)N1CCN(c2ccccc2)CC1", "IC50": "inactive"}, {"smiles": "O=C(CCCn1c(=O)c2ccccc2n(Cc2cccc(F)c2)c1=O)NC1CCN(Cc2ccccc2)CC1", "IC50": "0.51 µM"}, {"smiles": "O=C1c2cccc3cccc(c23)C(=O)N1CC1CCN(CC(O)COCc2ccc3c(c2)OCO3)CC1", "note": "(configuration not stated)", "IC50": "1.9 µM"}, {"smiles": "O=C(C1COc2ccccc2O1)N1CCN(CCN2C(=O)c3cccc4cccc(c34)C2=O)CC1", "note": "(configuration not stated)", "IC50": "> 100 µM (inactive)"}, {"smiles": "COc1ccc(COCC(O)CN2CCC(CN3C(=O)c4cccc5cccc(c45)C3=O)CC2)cc1OC", "note": "(configuration not stated)", "IC50": "5.6 µM"}, {"smiles": "CN(C)CCCN(C(=O)c1ccc(S(=O)(=O)N2CCCCC2)cc1)c1nc2cc3c(cc2s1)OCO3", "IC50": "8.13 µM"}, {"smiles": "CCOc1ccc2nc(N(CCCN(C)C)C(=O)c3ccc(C(=O)c4ccccc4)cc3)sc2c1", "IC50": "3.4 µM"}, {"smiles": "CC1CCCCN1C(=O)C1CCN(c2ncnc3c2nc2n3CCCCC2)CC1", "note": "(configuration not stated)", "IC50": "inactive"}, {"smiles": "Cc1ccccc1OCC(O)CN1CCN(CCN2C(=O)c3cccc4cccc(c34)C2=O)CC1", "note": "(configuration not stated)", "IC50": "12.8 µM"}, {"smiles": "CC1CCCC(C)N1CCCNC(=O)C1CCCN(c2ncnc3c2nc2n3CCCCC2)C1", "note": "(configuration not stated)", "IC50": "12.3 µM"}, {"smiles": "CCOc1ccc2nc(N(CCCN(C)C)C(=O)c3ccc(S(=O)(=O)N4CCc5ccccc5C4)cc3)sc2c1", "IC50": "3.19 µM"}, {"smiles": "Cc1ccc(-c2oc3ncnc(N)c3c2-c2ccc(C)cc2)cc1", "IC50": "2.7 µM"}, {"smiles": "Cc1cc(NC(=O)Cn2c(=O)n(CCCCC(=O)NC3CCN(Cc4ccccc4)CC3)c(=O)c3ccccc32)n[nH]1", "IC50": "12.9 µM"}, {"smiles": "O=C(CCCCn1c(=O)c2ccccc2n(Cc2ccccc2F)c1=O)NC1CCN(Cc2ccccc2)CC1", "IC50": "2.99 µM"}, {"smiles": "O=C(CCCn1c(=O)c2ccccc2n(Cc2cccc([N+](=O)[O-])c2)c1=O)NC1CCN(Cc2ccccc2)CC1", "IC50": "0.34 µM"}, {"smiles": "Cc1ccc2c(c1)C1CN(C)CCC1N2C(=O)CCCN1C(=O)c2cccc3cccc(c23)C1=O", "note": "(configuration not stated)", "IC50": "3.92 µM"}, {"smiles": "O=C(CCCCCN1C(=O)c2ccccc2C1=O)NCc1ccccc1", "IC50": "15.8 µM"}, {"smiles": "CC(=O)c1ccccc1OCC(O)CN1CCN(CCN2C(=O)c3cccc4cccc(c34)C2=O)CC1", "note": "(configuration not stated)", "IC50": "10.5 µM"}, {"smiles": "CN(C)CCCN(C(=O)c1ccc(C(=O)c2ccccc2)cc1)c1nc2cc3c(cc2s1)OCO3", "IC50": "6.57 µM"}, {"smiles": "COc1ccc(NC(=O)CCCCCN2C(=O)c3cccc([N+](=O)[O-])c3C2=O)cc1", "IC50": "> 100 µM (inactive)"}, {"smiles": "CC(NC(=O)CCCCCN1C(=O)c2cccc([N+](=O)[O-])c2C1=O)c1ccccc1", "note": "(configuration not stated)", "IC50": "inactive"}, {"smiles": "O=C1c2cccc3cccc(c23)C(=O)N1CC1CCN(CC(O)COc2ccc3ccccc3c2)CC1", "note": "(configuration not stated)", "IC50": "3.32 µM"}, {"smiles": "O=C(NCC1CCN(Cc2ccc(Cl)cc2)CC1)C1CCCN(c2ncnc3c2nc2n3CCCCC2)C1", "note": "(configuration not stated)", "IC50": "4.33 µM"}, {"smiles": "CCc1ccc2nc(N(CCCN(C)C)C(=O)c3ccc(S(=O)(=O)N4CCc5ccccc5C4)cc3)sc2c1", "IC50": "2.8 µM"}, {"smiles": "O=C(CCCCCN1C(=O)c2cccc3cccc(c23)C1=O)NCc1cccnc1", "IC50": "5.08 µM"}, {"smiles": "COc1cc2nc(N(CCCN(C)C)C(=O)c3ccc(S(=O)(=O)N4CCc5ccccc5C4)cc3)sc2cc1OC", "IC50": "3.79 µM"}, {"smiles": "O=C1c2cccc3cccc(c23)C(=O)N1CCN1CCN(CC(O)COc2ccc3ccccc3c2)CC1", "note": "(configuration not stated)", "IC50": "1.35 µM"}, {"smiles": "O=C(C1CCN(c2ncnc3c2nc2n3CCCCC2)CC1)N1CCOCC1", "IC50": "inactive"}, {"smiles": "CC(=O)Nc1ccc(OCC(O)CN2CCN(CCN3C(=O)c4cccc5cccc(c45)C3=O)CC2)cc1", "note": "(configuration not stated)", "IC50": "17.4 µM"}, {"smiles": "O=C(c1ccc(S(=O)(=O)N2CCCC2)cc1)N1CCC(CN2C(=O)c3cccc4cccc(c34)C2=O)CC1", "IC50": "4.19 µM"}, {"smiles": "CN(C)CCCN(C(=O)c1ccc(S(=O)(=O)N2CCc3ccccc3C2)cc1)c1nc2ccc(F)cc2s1", "IC50": "8.1 µM"}, {"smiles": "Cc1cc(C)c2sc(N(CCCN(C)C)C(=O)c3ccc(S(=O)(=O)N(C)C4CCCCC4)cc3)nc2c1", "IC50": "7.48 µM"}, {"smiles": "COc1ccc(-c2oc3ncnc(N)c3c2-c2ccccc2)cc1", "IC50": "2.06 µM"}, {"smiles": "CCN(Cc1ccccc1)S(=O)(=O)c1ccc(C(=O)N(CCCN(C)C)c2nc3cc(C)cc(C)c3s2)cc1", "IC50": "4.07 µM"}, {"smiles": "CN(C)CCCN(C(=O)c1ccc(S(=O)(=O)N2CCCC2)cc1)c1nc2ccc(Br)cc2s1", "IC50": "6.86 µM"}, {"smiles": "CC(NC(=O)CCCCCN1C(=O)c2ccccc2C1=O)c1nc(-c2ccccc2)no1", "note": "(configuration not stated)", "IC50": "10.6 µM"}, {"smiles": "CCN(Cc1ccccc1)S(=O)(=O)c1ccc(C(=O)N(CCCN(C)C)c2nc3cc4c(cc3s2)OCCO4)cc1", "IC50": "1.51 µM"}, {"smiles": "O=C(CCCn1c(=O)c2ccccc2n(Cc2ccc(Cl)cc2)c1=O)NC1CCN(Cc2ccccc2)CC1", "IC50": "0.35 µM"}, {"smiles": "COc1ccc(CCNC(=O)CCCCCN2C(=O)c3ccccc3C2=O)cc1OC", "IC50": "inactive"}]}]}
